# Measured values from patent US20100016232A1, “Treatment Of Inflammatory Diseases With Mammal Beta Defensins” (Novozymes A/S, priority 2008, published 2010).
# Marks after values point to notes of the source that are not given here. Where no end group is shown, it is not given here.
# Test system: collagen-induced arthritis (CIA) in the mouse
# Assay: Collagen-induced rheumatoid arthritis model, clinical arthritis score
# Type: in vivo
# Set-up: key: each paw scored 0-4 by ascending severity; total summed over paws
# Procedure: All animals were subjected on Day 0 of the study (study commencement) to an intradermal injection into the tail of 0.1 ml Type II Collagen/CFA emulsion (200 μg collagen per mouse) under light Isoflurane anesthesia, using a plastic syringe. The location of injection was at an approximate caudal distance of about 1 cm from the base of the tail. A collagen challenge (200 μg/mouse) was presented to the animals by IP injection of collagen and PBS on Day 21.
# Treatments were commenced on day 14 of the study and continued once daily throughout. All surviving mice were terminated on study day 42.
# Mice were examined for signs of arthritogenic responses in peripheral joints on study day 0, 14, 21 and thereafter five times weekly until termination of the study. Arthritis reactions were reported for each paw according to a 0-4 scale in ascending order of severity as shown below:
# In accordance with Home Office regulations mice with a total clinical score of equal to or greater than 12 were culled due to arthritis severity. The clinical score of these mice at termination was carried forward in the analysis for the remainder of the study in order that the data was not artificially skewed by the removal of high scoring mice.
substance,measurement,setting,value
"hBD2: human beta defensin 2, SEQ ID NO:2; produced recombinantly in E. coli (Example 1); hBD2 of Tables 16-18 was prepared by chemical synthesis (GIGDPVTCLKSGAICHPVFCPRRYKQIGTCGLPGTKCCKKP; ends and bridges not checked; cysteine pairing not given here; listed as Homo sapiens)","Mean total arthritis score, peak","0.1 mg/kg i.v. once daily from day 14 (Group E), study day 40",9.0±0.77
same,"Mean total arthritis score, peak","1 mg/kg i.v. once daily from day 14 (Group D), study day 41",5.2±1.11
same,"Mean total arthritis score, peak","10 mg/kg i.v. once daily from day 14 (Group C), study day 40",5.0±1.04
same,Mean Arthritic Score,"Group C, 10 mg/kg IV once daily, Study Day 0",0.0
same,Mean Arthritic Score,"Group C, 10 mg/kg IV once daily, Study Day 14",1.7
same,Mean Arthritic Score,"Group C, 10 mg/kg IV once daily, Study Day 21",3.1
same,Mean Arthritic Score,"Group C, 10 mg/kg IV once daily, Study Day 22",4.3
same,Mean Arthritic Score,"Group C, 10 mg/kg IV once daily, Study Day 23",3.3
same,Mean Arthritic Score,"Group C, 10 mg/kg IV once daily, Study Day 26",4.1
same,Mean Arthritic Score,"Group C, 10 mg/kg IV once daily, Study Day 27",4.1
same,Mean Arthritic Score,"Group C, 10 mg/kg IV once daily, Study Day 28",4.1
same,Mean Arthritic Score,"Group C, 10 mg/kg IV once daily, Study Day 29",4.4
same,Mean Arthritic Score,"Group C, 10 mg/kg IV once daily, Study Day 30",4.9
same,Mean Arthritic Score,"Group C, 10 mg/kg IV once daily, Study Day 33",4.8
same,Mean Arthritic Score,"Group C, 10 mg/kg IV once daily, Study Day 34",4.9
same,Mean Arthritic Score,"Group C, 10 mg/kg IV once daily, Study Day 35",4.9
same,Mean Arthritic Score,"Group C, 10 mg/kg IV once daily, Study Day 36",4.8
same,Mean Arthritic Score,"Group C, 10 mg/kg IV once daily, Study Day 37",4.7
same,Mean Arthritic Score,"Group C, 10 mg/kg IV once daily, Study Day 40",5.0
same,Mean Arthritic Score,"Group C, 10 mg/kg IV once daily, Study Day 41",4.8*
same,Mean Arthritic Score,"Group D, 1 mg/kg IV once daily, Study Day 0",0.0
same,Mean Arthritic Score,"Group D, 1 mg/kg IV once daily, Study Day 14",0.6
same,Mean Arthritic Score,"Group D, 1 mg/kg IV once daily, Study Day 21",2.1
same,Mean Arthritic Score,"Group D, 1 mg/kg IV once daily, Study Day 22",2.3
same,Mean Arthritic Score,"Group D, 1 mg/kg IV once daily, Study Day 23",2.0
same,Mean Arthritic Score,"Group D, 1 mg/kg IV once daily, Study Day 26",2.0
same,Mean Arthritic Score,"Group D, 1 mg/kg IV once daily, Study Day 27",2.0
same,Mean Arthritic Score,"Group D, 1 mg/kg IV once daily, Study Day 28",2.3
same,Mean Arthritic Score,"Group D, 1 mg/kg IV once daily, Study Day 29",2.4
same,Mean Arthritic Score,"Group D, 1 mg/kg IV once daily, Study Day 30",2.7
same,Mean Arthritic Score,"Group D, 1 mg/kg IV once daily, Study Day 33",4.0
same,Mean Arthritic Score,"Group D, 1 mg/kg IV once daily, Study Day 34",4.1
same,Mean Arthritic Score,"Group D, 1 mg/kg IV once daily, Study Day 35",4.0
same,Mean Arthritic Score,"Group D, 1 mg/kg IV once daily, Study Day 36",4.1
same,Mean Arthritic Score,"Group D, 1 mg/kg IV once daily, Study Day 37",4.2
same,Mean Arthritic Score,"Group D, 1 mg/kg IV once daily, Study Day 40",4.7*
same,Mean Arthritic Score,"Group D, 1 mg/kg IV once daily, Study Day 41",5.2
same,Mean Arthritic Score,"Group E, 0.1 mg/kg IV once daily, Study Day 0",0.0
same,Mean Arthritic Score,"Group E, 0.1 mg/kg IV once daily, Study Day 14",1.2
same,Mean Arthritic Score,"Group E, 0.1 mg/kg IV once daily, Study Day 21",3.2
same,Mean Arthritic Score,"Group E, 0.1 mg/kg IV once daily, Study Day 22",3.6
same,Mean Arthritic Score,"Group E, 0.1 mg/kg IV once daily, Study Day 23",3.2
same,Mean Arthritic Score,"Group E, 0.1 mg/kg IV once daily, Study Day 26",3.7
same,Mean Arthritic Score,"Group E, 0.1 mg/kg IV once daily, Study Day 27",4.1
same,Mean Arthritic Score,"Group E, 0.1 mg/kg IV once daily, Study Day 28",4.4
same,Mean Arthritic Score,"Group E, 0.1 mg/kg IV once daily, Study Day 29",5.0
same,Mean Arthritic Score,"Group E, 0.1 mg/kg IV once daily, Study Day 30",5.9
same,Mean Arthritic Score,"Group E, 0.1 mg/kg IV once daily, Study Day 33",7.3
same,Mean Arthritic Score,"Group E, 0.1 mg/kg IV once daily, Study Day 34",7.8
same,Mean Arthritic Score,"Group E, 0.1 mg/kg IV once daily, Study Day 35",8.0
same,Mean Arthritic Score,"Group E, 0.1 mg/kg IV once daily, Study Day 36",8.2
same,Mean Arthritic Score,"Group E, 0.1 mg/kg IV once daily, Study Day 37",8.7
same,Mean Arthritic Score,"Group E, 0.1 mg/kg IV once daily, Study Day 40",9.0
same,Mean Arthritic Score,"Group E, 0.1 mg/kg IV once daily, Study Day 41",8.8
